Source: patent US7964599B2, “Therapeutic compounds” (Allergan, Inc., priority 2008, dated 2011)

Experiments:
Format in all cases: in vivo
[1] = test system: laser-induced hypertensive monkeys; assay: Intraocular pressure reduction in laser-induced hypertensive monkeys; details: change from baseline
Procedure: [The source words this procedure for another organism and reports this organism under the same test.] (§1) Compounds such as those described in the above are tested in vivo to measure its ability to reduce intraocular pressure. Compound 1 is tested in normotensive dogs.

normotensive dogs = assay: Intraocular pressure reduction in normotensive dogs; details: change from baseline
Procedure: as §1

[2] = test system: lashes and adjacent hairs of patients; assay: Eyelash/hair growth observed in glaucoma patients treated in one eye; details: glaucoma patient treated in only one eye
Text: In the course of treating patients having glaucoma, treatment may only be appropriate in one eye. […] The lash appearance on the lids of the treated eyes would have appeared quite attractive if it represented a bilateral phenomenon. As a result of its asymmetric nature, the long lashes on one side could be construed as disturbing from a cosmetic standpoint. A systemic examination was preformed as a result of the asymmetric phenomenon. It soon became apparent that this altered appearance was not an isolated finding. […] Definite differences could be identified to varying degrees in the lashes and adjacent hairs of all patients who were taking the drug on a unilateral basis for longer than 6 months.
The changes in the lashes were apparent on gross inspection in several patients once attention was focused on the issue. In those with light colored hair and lashes, the differences were only seen easily with the aid of the high magnification and lighting capabilities of the slit lamp biomicroscope. In the course of glaucoma follow-up examination, attention is generally immediately focused on the eye itself. As a result of the high power magnification needed only one eye is seen at a time and the eye is seen at a high enough power that the lashes are not in focus. […]

Compound	IOP [1]	intraocular pressure (IOP) (normotensive dogs)	lash appearance in treated eye versus non-treated eye [2]
CCCCCC(=O)c1ccc([C@H]2C(=O)C[C@@H](Cl)[C@@H]2C/C=C\CCCC(=O)OCCN2CCOCC2)cc1 [Compound 5]	decreases from baseline	decreases from baseline	–
CCCCCC(O)c1ccc([C@H]2C(=O)C[C@@H](Cl)[C@@H]2C/C=C\CCCC(=O)OCCN2CCOCC2)cc1 (stereo partly drawn) [Compound 6]	decreases from baseline	decreases from baseline	–
CCCCCC(O)c1ccc([C@H]2C(O)C[C@@H](Cl)[C@@H]2C/C=C\CCCC(=O)OCCN2CCOCC2)cc1 (stereo partly drawn) [Compound 7]	decreases from baseline	decreases from baseline	–
CCCCCC(=O)c1ccc([C@H]2C(O)C[C@@H](Cl)[C@@H]2C/C=C\CCCC(=O)OCCN2CCOCC2)cc1 (stereo partly drawn) [Compound 8]	decreases from baseline	decreases from baseline	–
CCNC(=O)CCC/C=C\C[C@@H]1[C@@H](/C=C/[C@@H](O)CCc2ccccc2)[C@H](O)C[C@@H]1O [bimatoprost]	–	–	longer, thicker, and fuller
(Z)-7-[(1R,2S,3R,5R)-5-Chloro-2-(4-hexanoyl-phenyl)-3-hydroxy-cyclopentyl]-hept-5-enoic acid [Compound 3]	decreases from baseline	decreases from baseline	–
(Z)-7-[(1R,2S,3R,5R)-5-Chloro-2-(4-hexanoyl-phenyl)-3-hydroxy-cyclopentyl]-hept-5-enoic acid methyl ester [Compound 2]	decreases from baseline	decreases from baseline	–
(Z)-7-{(1R,2S,3R,5R)-5-Chloro-3-hydroxy-2-[4-(1-hydroxy-hexyl)-phenyl]-cyclopentyl}-hept-5-enoic acid methyl ester [Compound 1]	decreases from baseline	decreases from baseline	–
